By logP is commonly meant a log measure of how a compound divides between an organic and an aqueous phase. As usually defined, the chromatographic logP is a lipophilicity value derived from retention on a column.

Data on seven compounds can be found in patent US9770022B2, “N-cycloalkyl-N-[(bicyclylphenyl)methylene]-(thio)carboxamide derivatives” (BAYER CROPSCIENCE AG, priority 2013, dated 2017).

One series relates to Puccinia recondita. Put plainly: In vivo preventive test on Puccinia recondita (brown rust on wheat). The note with it: 500 ppm of active ingredient, evaluated 11 days after inoculation. As for the experimental part: (§1) Solvent: 5% by volume of Dimethyl sulfoxide
(§2) • 10% by volume of Acetone Emulsifier: 1 μl of Tween® 80 per mg of active ingredient
(§3) The active ingredients are made soluble and homogenized in a mixture of Dimethyl sulfoxide/Acetone/Tween® 80 and then diluted in water to the desired concentration.
(§4) The young plants of wheat are treated by spraying the active ingredient prepared as described above. Control plants are treated only with an aqueous solution of Acetone/Dimethyl sulfoxide/Tween® 80.
After 24 hours, the plants are contaminated by spraying the leaves with an aqueous suspension of Puccinia recondita spores. The contaminated wheat plants are incubated for 24 hours at 20° C. and at 100% relative humidity and then for 10 days at 20° C. and at 70-80% relative humidity.
(§5) The test is evaluated 11 days after the inoculation. 0% means an efficacy which corresponds to that of the control plants while an efficacy of 100% means that no disease is observed.

For the next series, the system named is Septoria tritici. Description: In vivo preventive test on Septoria tritici (wheat). The note with it: 500 ppm of active ingredient, evaluated 24 days after inoculation. The protocol:
as §1, §2, §3, §4
After 24 hours, the plants are contaminated by spraying the leaves with an aqueous suspension of Septoria tritici spores. The contaminated wheat plants are incubated for 72 hours at 18° C. and at 100% relative humidity and then for 21 days at 20° C. and at 90% relative humidity.
The test is evaluated 24 days after the inoculation. 0% means an efficacy which corresponds to that of the control plants while an efficacy of 100% means that no disease is observed.

Another series concerns Uromyces appendiculatus. Put plainly: In vivo preventive test on Uromyces appendiculatus (bean rust). The note with it: for Efficacy: 500 ppm of active ingredient, evaluated 11 days after inoculation; for pest or weed control at 500 ppm: Uromyces appendiculatus, 264 h. As for the experimental part: as §1, §2, §3
The young plants of bean are treated by spraying the active ingredient prepared as described above. Control plants are treated only with an aqueous solution of Acetone/Dimethyl sulfoxide/Tween® 80.
After 24 hours, the plants are contaminated by spraying the leaves with an aqueous suspension of Uromyces appendiculatus spores. The contaminated bean plants are incubated for 24 hours at 20° C. and at 100% relative humidity and then for 10 days at 20° C. and at 70-80% relative humidity.
as §5

A further series concerns Pyrenophora teres. Description: In vivo preventive test on Pyrenophora teres (barley). The note with it: 500 ppm of active ingredient, evaluated 14 days after inoculation. As for the experimental part: as §1, §2, §3
The young plants of barley are treated by spraying the active ingredient prepared as described above. Control plants are treated only with an aqueous solution of Acetone/Dimethyl sulfoxide/Tween® 80.
After 24 hours, the plants are contaminated by spraying the leaves with an aqueous suspension of Pyrenophora teres spores. The contaminated barley plants are incubated for 48 hours at 20° C. and at 100% relative humidity and then for 12 days at 20° C. and at 70-80% relative humidity.
The test is evaluated 14 days after the inoculation. 0% means an efficacy which corresponds to that of the control plants while an efficacy of 100% means that no disease is observed.

In the next series the test system is Alternaria brassicae. Put plainly: In vivo preventive test on Alternaria brassicae (leaf spot on radish). The note with it: 500 ppm of active ingredient, spray 24 hours before inoculation, evaluated 6 days after inoculation. The protocol:
as §1, §2, §3
The young plants of radish are treated by spraying the active ingredient prepared as described above. Control plants are treated only with an aqueous solution of Acetone/Dimethyl sulfoxide/Tween® 80.
After 24 hours, the plants are contaminated by spraying the leaves with an aqueous suspension of Alternaria brassicae spores. The contaminated radish plants are incubated for 6 days at 20° C. and at 100% relative humidity.
The test is evaluated 6 days after the inoculation. 0% means an efficacy which corresponds to that of the control plants while an efficacy of 100% means that no disease is observed.

In the next series the test system is Sphaerotheca fuliginea. Description: In vivo preventive test on Sphaerotheca fuliginea (powdery mildew on cucurbits). The note with it: 500 ppm of active ingredient; gherkin; evaluated 15 days after inoculation. The protocol:
as §1, §2, §3
The young plants of gherkin are treated by spraying the active ingredient prepared as described above. Control plants are treated only with an aqueous solution of Acetone/Dimethyl sulfoxide/Tween® 80.
After 24 hours, the plants are contaminated by spraying the leaves with an aqueous suspension of Sphaerotheca fuliginea spores. The contaminated gherkin plants are incubated for 72 hours at 18° C. and at 100% relative humidity and then for 12 days at 20° C. and at 70-80% relative humidity.
The test is evaluated 15 days after the inoculation. 0% means an efficacy which corresponds to that of the control plants while an efficacy of 100% means that no disease is observed.

Series [1] is described as follows: log P by HPLC on reversed-phase column (C 18), EEC Directive 79/831 Annex V.A8. It is filed as physicochemical. The note with it: Table 1, HPLC C 18, 40° C., 0.1% aqueous formic acid and acetonitrile, gradient 10% to 90% acetonitrile, two values = mixture of endo and exo isomers. As for the experimental part:
In table 1, the log P values were determined in accordance with EEC Directive 79/831 Annex V.A8 by HPLC (High Performance Liquid Chromatography) on a reversed-phase column (C 18), using the method described below:
Temperature: 40° C.; Mobile phases: 0.1% aqueous formic acid and acetonitrile; linear gradient from 10% acetonitrile to 90% acetonitrile.
Calibration was carried out using unbranched alkan-2-ones (comprising 3 to 16 carbon atoms) with known log P values (determination of the log P values by the retention times using linear interpolation between two successive alkanones). lambda-max-values were determined using UV-spectra from 200 nm to 400 nm and the peak values of the chromatographic signals.

Like-named read-outs stand apart in the source and are kept apart here.

For `Cn1cc(C(=O)N(Cc2ccccc2C2CC3CCC2C3)C2CC2)c(C(F)F)n1` (mixture of isomers) [I.05], the Efficacy in the series on Puccinia recondita worked out at 94%; in the series with Septoria tritici, 86%; with Uromyces appendiculatus, 91%; in the series with Pyrenophora teres, 71%; in the series on Alternaria brassicae, 80%; in the series on Sphaerotheca fuliginea, 95%.
Turning to `CC(C)c1ccc(C2=CC3CCC2(C)C3(C)C)cc1CN(C(=O)c1c(C(F)F)nn(C)c1F)C1CC1` (stereo not shown) [I.16], the Efficacy turned out to be 94% in the series on Puccinia recondita; 100% in the series with Septoria tritici; 94% in the series on Pyrenophora teres; 79% in the series on Alternaria brassicae; 100% in the series with Sphaerotheca fuliginea. Also, in series [1], the logP is reported as 6.46.
As to `Cn1nc(C(F)F)c(C(=S)N(Cc2ccccc2C2CC3CCC2C3)C2CC2)c1F` (mixture of isomers) [I.18], the Efficacy is reported as 88% with Puccinia recondita; 100% with Septoria tritici; 100% with Uromyces appendiculatus; 94% with Pyrenophora teres; 97% in the series with Alternaria brassicae; 100% with Sphaerotheca fuliginea.
Turning to `Cn1nc(C(F)F)c(C(=O)N(Cc2ccccc2C2CC3CCC2C3)C2CC2)c1F` (mixture of isomers) [I.03], the Efficacy in the series with Puccinia recondita was found to be 98%; in the series with Septoria tritici, 100%; with Uromyces appendiculatus, 100%; with Pyrenophora teres, 100%; with Alternaria brassicae it was 96%; in the series on Sphaerotheca fuliginea, 100%.
For the compound `CC(c1ccccc1C1CC2CCC1C2)N(C(=O)c1c(C(F)F)nn(C)c1F)C1CC1` (stereo not shown) [I.15, N-{1-[2-(bicyclo[2.2.1]hept-2-yl)phenyl]ethyl}-N-cyclopropyl-3-(difluoromethyl)-5-fluoro-1-methyl-1H-pyrazole-4-carboxamide], the Efficacy with Puccinia recondita is listed as 88%; with Septoria tritici, 100%; in the series with Pyrenophora teres, 100%; in the series with Alternaria brassicae, 97%; with Sphaerotheca fuliginea, 100%. Further, the pest or weed control at 500 ppm is 88% in the series with Uromyces appendiculatus (read-out: Efficacy, 500 ppm of active ingredient, evaluated 11 days after inoculation); no less than 80% with Uromyces appendiculatus (read-out: Efficacy, 500 ppm, evaluated 11 days after inoculation, Table F2 comparison); no less than 80% in the series on Uromyces appendiculatus (read-out: Efficacy, 500 ppm, evaluated 11 days after inoculation, Table F3 comparison). In series [1], the lipophilicity (logP) came out at 4.98. The chromatographic logP in series [1] (reversed-phase HPLC column (C 18)) amounted to 4.91.
As to `Cn1nc(C(F)F)c(C(=O)N(Cc2ccccc2C23CCCCCC2C3(Cl)Cl)C2CC2)c1F` (stereo not shown) [I.13], the Efficacy in the series with Puccinia recondita worked out at 81%; in the series on Septoria tritici, 88%; with Pyrenophora teres, 75%; with Alternaria brassicae, 75%; in the series with Sphaerotheca fuliginea it was 100%. In series [1], the logP is listed as 5.17.
For `Cn1nc(C(F)F)c(C(=O)N(Cc2cc(C34CCCC3C4(Cl)Cl)ccc2Cl)C2CC2)c1F` (stereo not shown) [I.09], the Efficacy in the series on Septoria tritici is listed as 100%; in the series with Uromyces appendiculatus it was 84%; in the series on Pyrenophora teres it was 88%; in the series on Alternaria brassicae, 75%; in the series on Sphaerotheca fuliginea it was 100%. Further, in series [1], the logP was determined as 4.90.
